Results: patent US20230144211A1, “ANTIFOLATE LINKER-DRUGS AND ANTIBODY-DRUG CONJUGATES” (Byondis B.V., priority 2020, published 2023)

Experiments:
Assay in all cases: In vitro cell viability assay (CellTiter-Glo, 6 days)
[1] = test system: SK-BR-3 cells; format: cell-based, human
Method: (§1) FaDu, BxPC-3, HeLa, MV4-11, and RAJI cell lines were obtained from Deutsche Sammlung von Mikroorganismen und Zellkulturen (Leipzig, Germany). Jurkat NucLight Red cells were obtained from Essen BioScience Inc. (Ann Arbor, Mich., USA). SK-BR-3 and SK-OV-3 cells were cultured in McCoys 5A medium (Lonza; Walkersville, Md., USA) supplemented with 10% v/w Fetal Bovine Serum (FBS), Heat-inactivated (HI) (Gibco-Life Technologies; Carlsbad, Calif.) and 80 U/mL Pen/Strep (Gibco-Life Technologies), at 37° C. in a humidified incubator under 5% CO2 atmosphere. SW-620 cells were similarly maintained in RPMI 1640 medium (Lonza), containing 10% v/w FBS HI and 80 U/mL Pen/Strep. A-549 cells were similarly maintained in F-12K Nutrient Mixture (1×) (Gibco-Life Technologies) media supplemented with 80 U/mL Pen/Strep and 5% v/w FBS, which was Qualified (Q) (Gibco-Life Technologies). BT-474 and AU-565 cells were similarly maintained in RPMI 1640 medium (Lonza), containing 10% v/w FBS, which was Qualified (Q) (Gibco-Life Technologies), and 80 U/mL Pen/Strep. […] Jurkat NucLight Red cells were similarly maintained in RPMI 1640 medium (Lonza), containing 10% v/w FBS HI, 80 U/mL Pen/Strep and 0.5 μg/mL Puromycin (Gibco-Life Technologies). FaDu cells were cultured in EMEM medium (Lonza) supplemented with 10% v/w FBS HI (Gibco-Life Technologies), 1× GlutaMAX (Gibco-Life Technologies), and 80 U/mL Pen/Strep (Gibco-Life Technologies), at 37° C. in a humidified incubator under 5% CO2 atmosphere.
(§2) After an overnight incubation, 10 serial log 10 dilutions of the free drugs were made in DMSO (Sigma-Aldrich). These free drug dose-response curves were 10-times further diluted in complete growth medium. For the ADCs according to the invention 10 serial log 10 dilutions were made in complete growth medium. 10 μL of a composition comprising a free drug or an ADC according to the invention was added to the assay plate (final DMSO content for free drugs was 1%). […] […] Percentage cell survival was calculated by dividing the measured luminescence for each free drug or ADC according to the concentration with the average mean of untreated cells (1% or 0.1% DMSO control (for free drugs) or 100% complete growth medium (for ADCs)) multiplied by 100.
(§3) Curves were fitted by non-linear regression using the sigmoidal dose-response equation with variable slope (four parameters) using curve-fitting software (GraphPad Prism, version 9.4.0 for Windows, GraphPad, San Diego, Calif. or Electronic Laboratory Notebook (ELN) add-in BioAssay, version 19.1.0.0218, Perkin Elmer, Waltham, Mass.). Relative IC50 values were calculated as the concentration that gives a response halfway between bottom and top of the curve, when using a 4-parameter logistic fit. Data were reported as mean IC50 value of at least one experiment performed in duplicate.

[2] = test system: AU-565 cells; format: cell-based, human
Method: as §1, §2, §3

[3] = test system: Jurkat NucLight Red cells; format: cell-based, human; conditions: free antifolate drugs
Method: as §1
(§4) After an overnight incubation, 10 serial log 10 dilutions of the free drugs were made in DMSO (Sigma-Aldrich). These free drug dose-response curves were 10-times further diluted in complete growth medium. For the ADCs according to the invention 10 serial log 10 dilutions were made in complete growth medium. 10 μL of a composition comprising a free drug or an ADC according to the invention was added to the assay plate (final DMSO content for free drugs was 1%). […] Cell viability was assessed after 6 days using a luminescent assay kit (CellTiter-Glo™ (CTG), Promega Corporation) according to the manufacturer's instructions. Percentage cell survival was calculated by dividing the measured luminescence for each free drug or ADC according to the concentration with the average mean of untreated cells (1% or 0.1% DMSO control (for free drugs) or 100% complete growth medium (for ADCs)) multiplied by 100.
as §3

[4] = test system: A-549 cells; format: cell-based; conditions: Homo sapiens, A549; free antifolate drugs, Table 1a; $ steep hillslope
Method: Human tumor cell lines SK-BR-3, SW-620, A-549, BT-474, Jurkat Clone E6-1, AU-565, and SK-OV-3 were obtained from American Type Culture Collection (Rockville, Md., USA). FaDu, BxPC-3, HeLa, MV4-11, and RAJI cell lines were obtained from Deutsche Sammlung von Mikroorganismen und Zellkulturen (Leipzig, Germany). Jurkat NucLight Red cells were obtained from Essen BioScience Inc. (Ann Arbor, Mich., USA). SK-BR-3 and SK-OV-3 cells were cultured in McCoys 5A medium (Lonza; Walkersville, Md., USA) supplemented with 10% v/w Fetal Bovine Serum (FBS), Heat-inactivated (HI) (Gibco-Life Technologies; Carlsbad, Calif.) and 80 U/mL Pen/Strep (Gibco-Life Technologies), at 37° C. in a humidified incubator under 5% CO2 atmosphere. SW-620 cells were similarly maintained in RPMI 1640 medium (Lonza), containing 10% v/w FBS HI and 80 U/mL Pen/Strep. A-549 cells were similarly maintained in F-12K Nutrient Mixture (1×) (Gibco-Life Technologies) media supplemented with 80 U/mL Pen/Strep and 5% v/w FBS, which was Qualified (Q) (Gibco-Life Technologies). BT-474 and AU-565 cells were similarly maintained in RPMI 1640 medium (Lonza), containing 10% v/w FBS, which was Qualified (Q) (Gibco-Life Technologies), and 80 U/mL Pen/Strep. Jurkat Clone E6-1, BxPC-3, HeLa, MV4-11, and RAJI cells were similarly maintained in RPMI 1640 medium (Lonza), containing 10% v/w FBS HI and 80 U/mL Pen/Strep. Jurkat NucLight Red cells were similarly maintained in RPMI 1640 medium (Lonza), containing 10% v/w FBS HI, 80 U/mL Pen/Strep and 0.5 μg/mL Puromycin (Gibco-Life Technologies). FaDu cells were cultured in EMEM medium (Lonza) supplemented with 10% v/w FBS HI (Gibco-Life Technologies), 1× GlutaMAX (Gibco-Life Technologies), and 80 U/mL Pen/Strep (Gibco-Life Technologies), at 37° C. in a humidified incubator under 5% CO2 atmosphere.
as §4, with “Cells in complete growth medium were plated in 96-well plates (90 μL/well) and incubated at 37° C., 5% CO2 at the following cell densities: 6500 SK-BR-3, 4000 SW-620, 2500 A-549, 10000 BT-474, 3000 Jurkat Clone E6-1, 5000 AU-565, 1250 FaDu, 1250 BxPC-3, 1000 HeLa, 7500 MV4-11, 1000 RAJI, 3000 Jurkat NucLight Red, and 4000 SK-OV-3 cells per well. After” for “After”
as §3

[5] = Homo sapiens, SK-BR-3, free antifolate drugs, Table 1c
[6] = Homo sapiens, AU565, free antifolate drugs, Table 1c
[7] = Homo sapiens, SK-BR-3, free antifolate drugs, Table 1b, # no full dose-response curve
[8] = Homo sapiens, AU565, free antifolate drugs, Table 1b
[9] = free antifolate drugs, Table 1c

IC50 [1, 5] | IC50 ([3]; Homo sapiens, Jurkat, Table 1c) | IC50 [1, 7] | IC50 ([3]; Homo sapiens, Jurkat, Table 1b) | Compound | IC50 [2, 6] | IC50 [2, 8] | also measured
~22 nM | 5.6 nM |  |  | Nc1ccc(C(=O)NCCC[C@H](NC(=O)c2ccc(SCc3cnc4nc(N)nc(N)c4n3)cc2)C(=O)O)c(-c2nn[nH]n2)c1 [AFD-005] | ~8 nM |  | 
1.06 nM | 2.01 nM |  |  | Nc1ccc(C(=O)NCCC[C@H](NC(=O)c2ccc3c(c2)CCCN3Cc2cnc3nc(N)nc(N)c3n2)C(=O)O)c(-c2nn[nH]n2)c1 [AFD-007] | 0.68 nM |  | 
 |  | 2.91 nM | 5.01 nM | Nc1ccc(C(=O)NCCC[C@H](NC(=O)c2ccc(NCc3ccc4nc(N)nc(N)c4c3Cl)s2)C(=O)O)c(-c2nnn[nH]2)c1 [XT126, (S)-5-(4-Amino-2-(1H-tetrazol-5-yl)benzamido)-2-(5-(((2,4-diamino-5-chloroquinazolin-6-yl)methyl)amino)thiophene-2-carboxamido)pentanoic acid] |  | 2.37 nM | 
1.5 nM | 0.87 nM |  |  | Nc1ccc(C(=O)NCCC[C@H](NC(=O)c2ccc3c(c2)CCN3Cc2cnc3nc(N)nc(N)c3n2)C(=O)O)c(-c2nn[nH]n2)c1 [AFD-008] | 0.76 nM |  | 
 |  | 20 nM | 15 nM | Nc1ccc(C(=O)NCCC[C@H](NC(=O)c2ccc(NCc3cnc4nc(N)nc(N)c4n3)c(O)c2)C(=O)O)c(-c2nn[nH]n2)c1 [AFD-002] |  | 14 nM | 
 |  |  |  | CN(Cc1cnc2nc(N)nc(N)c2n1)c1ccc(C(=O)N[C@@H](CCCNC(=O)c2ccc(N)cc2-c2nn[nH]n2)C(=O)O)s1 [XC9, (S)-5-(4-Amino-2-(2H-tetrazol-5-yl)benzamido)-2-(5-(((2,4-diaminopteridin-6-yl)methyl)(methyl)amino)thiophene-2-carboxamido)pentanoic acid] |  |  | IC50 [1, 9]: 3.77 nM; IC50 [2, 9]: 1.95 nM; IC50 ([3]; Table 1c): 2.41 nM
0.78 nM | 0.71 nM | 0.57 nM | 0.61 nM | Nc1ccc(C(=O)NCCC[C@H](NC(=O)c2ccc(CCc3cnc4nc(N)nc(N)c4n3)cc2)C(=O)O)c(-c2nnn[nH]2)c1 [XT128, (S)-5-(4-Amino-2-(1H-tetrazol-5-yl)benzamido)-2-(4-(2-(2,4-diaminopteridin-6-yl)ethyl)benzamido)pentanoic acid] | 0.36 nM | 0.34 nM | 
 |  | 2.09 nM | 1.4 nM | C#CCN(Cc1cnc2nc(N)nc(N)c2n1)c1ccc(C(=O)N[C@@H](CCCNC(=O)c2ccc(N)cc2-c2nn[nH]n2)C(=O)O)cc1 [AFD-003] |  | 0.98 nM | 
 |  |  |  | CN(Cc1cnc2nc(N)nc(N)c2n1)c1ccc(C(=O)N[C@@H](CCCNC(=O)c2ccc(N)cc2-c2nn[nH]n2)C(=O)O)s1 [XC5, (S)-5-(4-amino-2-(2H-tetrazol-5-yl)benzamido)-2-(5-(((2,4-diaminopteridin-6-yl)methyl)(methyl)amino)thiophene-2-carboxamido)pentanoic acid] |  |  | IC50 [1, 9]: ~100 nM; IC50 [2, 9]: ~28 nM; IC50 ([3]; Table 1c): ~30 nM
 |  |  |  | Nc1nc(N)c2nc(CNc3ccc(C(=O)N[C@@H](CCCNC(=O)c4ccc(O)cc4)C(=O)O)cc3)cnc2n1 [XS14, (S)-2-(4-(((2,4-diaminopteridin-6-yl)methyl)amino)benzamido)-5-(4-hydroxybenzamido)pentanoic acid] |  |  | IC50 ([1]; Homo sapiens, SK-BR-3, free antifolate drugs, Table 1a): 1.6 nM; IC50 ([2]; Homo sapiens, AU565, free antifolate drugs, Table 1a): 1.9 nM; IC50 [4]: ~8.7 nM
2.4 nM | 2.31 nM |  |  | Nc1ccc(C(=O)NCCC[C@H](NC(=O)c2ccc(NCc3cnc4nc(N)nc(N)c4n3)cc2N)C(=O)O)c(-c2nnn[nH]2)c1 [AFD-010] | 1.17 nM |  | 
0.67 nM | 0.68 nM |  |  | Nc1ccc(C(=O)NCCC[C@H](NC(=O)c2ccc(NCc3cnc4nc(N)nc(N)c4n3)cc2O)C(=O)O)c(-c2nn[nH]n2)c1 [AFD-004] | 0.37 nM |  | 
 |  | 2.15 nM | 1.19 nM | COc1cc(C(=O)N[C@@H](CCCNC(=O)c2ccc(N)cc2-c2nnn[nH]2)C(=O)O)ccc1NCc1cnc2nc(N)nc(N)c2n1 [XT132, (S)-5-(4-Amino-2-(1H-tetrazol-5-yl)benzamido)-2-(4-(((2,4-diaminopteridin-6-yl)methyl)amino)-3-methoxybenzamido)pentanoic acid] |  | 0.97 nM | 
5.15 nM | 5.98 nM |  |  | Nc1ccc(C(=O)NCCC[C@H](NC(=O)c2ccc(NCc3cnc4nc(N)nc(N)c4n3)c(N)c2)C(=O)O)c(-c2nn[nH]n2)c1 [AFD-006] | 2.8 nM |  | 
 |  | 25 nM | 4.92 nM | Nc1ccc(C(=O)NCCC[C@H](NC(=O)c2ccc(OCc3cnc4nc(N)nc(N)c4n3)cc2)C(=O)O)c(-c2nn[nH]n2)c1 [AFD-001] |  | 9.18 nM | 
2.82 nM | 1.96 nM |  |  | Nc1ccc(C(=O)NCCC[C@H](NC(=O)c2ccc3c(ccn3Cc3cnc4nc(N)nc(N)c4n3)c2)C(=O)O)c(-c2nn[nH]n2)c1 [AFD-009] | 1.15 nM |  | 
